In patent publication US6403600B1, “Methoximinophenylacetic acid amides” (Bayer Aktiengesellschaft, priority 1998, dated 2002):

Assay: logP determination by HPLC (EEC-Directive 79/831 Annex V. A8)
Format: physicochemical
Conditions: gradient method, acetonitrile/0.1% aqueous phosphoric acid

| SMILES | logP |
| --- | --- |
| CON=C(C(=O)N(C)SC(F)(Cl)Cl)c1ccccc1Oc1ncnc(Oc2cccc(Cl)c2C)c1F [Example 86] | 5.59 |
| CON=C(C(=O)N(C)SC(F)(Cl)Cl)c1ccccc1Oc1ncnc(Oc2cccc(C=O)c2Cl)c1F [Example 87] | 4.72 |
| CON=C(C(=O)N(C)SC(F)(Cl)Cl)c1ccccc1Oc1ncnc(Oc2ccccc2)c1F [Example 88] | 4.76 |
| CON=C(C(=O)N(C)SC(F)(Cl)Cl)c1ccccc1Oc1ncnc(Oc2ccccc2C)c1F [Example 89] | 5.05 |
| CON=C(C(=O)N(C)SC(F)(Cl)Cl)c1ccccc1Oc1ncnc(Oc2ccc(C)cc2C)c1F [Example 90] | 5.41 |
| CON=C(C(=O)N(C)SC(F)(Cl)Cl)c1ccccc1Oc1ncnc(Oc2ccccc2OC(F)(F)F)c1F [Example 93] | 5.2 |
| CON=C(C(=O)N(C)SC(F)(Cl)Cl)c1ccccc1Oc1ncnc(Oc2ccc(OC(F)(F)F)cc2Cl)c1F [Example 99] | 5.08 |
| CON=Cc1cccc(Oc2ncnc(Oc3ccccc3C(=NOC)C(=O)N(C)SC(F)(Cl)Cl)c2F)c1 [Example 100] | 5.81 |
| CON=C(C(=O)N(C)SC(F)(Cl)Cl)c1ccccc1Oc1ncnc(Oc2ccc(Cl)cc2Cl)c1F [Example 102] | 5.76 |
| CON=C(C(=O)N(C)SC(F)(Cl)Cl)c1ccccc1Oc1ncnc(Oc2ccc(Br)cc2)c1F [Example 104] | 5.19 |
| CON=C(C(=O)N(C)SC(F)(Cl)Cl)c1ccccc1Oc1ncnc(Oc2ccc(OC)cc2)c1F [Example 108] | 4.63 |
| CON=C(C(=O)N(C)SC(F)(Cl)Cl)c1ccccc1Oc1ncnc(Oc2ccccc2C(C)(C)C)c1F [Example 111] | 5.73 |
| CON=C(C(=O)N(C)SC(F)(Cl)Cl)c1ccccc1Oc1ncnc(Oc2ccc(F)cc2Cl)c1F [Example 114] | 5.14 |
| CON=C(C(=O)N(C)SC(F)(Cl)Cl)c1ccccc1Oc1ncnc(Oc2ccc(Cl)c(Cl)c2)c1F [Example 115] | 5.58 |
| CON=C(C(=O)N(C)SC(F)(Cl)Cl)c1ccccc1Oc1ncnc(Oc2ccc(F)cc2F)c1F [Example 116] | 4.85 |
| CON=C(C(=O)N(C)SC(F)(Cl)Cl)c1ccccc1Oc1ncnc(Oc2cccc(Cl)c2)c1F [Example 117] | 5.14 |
| CON=C(C(=O)N(C)SC(F)(Cl)Cl)c1ccccc1Oc1ncnc(Oc2ccc(C)cc2)c1F [Example 120] | 5.02 |
| CON=C(C(=O)N(C)SC(F)(Cl)Cl)c1ccccc1Oc1ncnc(Oc2cc(C)ccc2C)c1F [Example 121] | 5.34 |
| CON=C(C(=O)N(C)SC(F)(Cl)Cl)c1ccccc1Oc1ncnc(Oc2cccc(C)c2)c1F [Example 128] | 4.98 |
| CON=C(C(=O)N(C)SC(F)(Cl)Cl)c1ccccc1Oc1ncnc(Oc2ccccc2OC)c1F [Example 129] | 4.57 |
| CCc1ccc(Oc2ncnc(Oc3ccccc3C(=NOC)C(=O)N(C)SC(F)(Cl)Cl)c2F)cc1 [Example 131] | 5.38 |
| CON=C(C(=O)N(C)SC(F)(Cl)Cl)c1ccccc1Oc1ncnc(Oc2cccc(C(C)(C)C)c2)c1F [Example 132] | 5.84 |
| CON=C(C(=O)N(C)SC(F)(Cl)Cl)c1ccccc1Oc1ncnc(Oc2ccc(OC(F)(F)F)cc2)c1F [Example 133] | 5.3 |
| CON=C(C(=O)N(C)SC(F)(Cl)Cl)c1ccccc1Oc1ncnc(Oc2ccc(N)c(Cl)c2Cl)c1F [Example 136] | 4.68 |
| CCc1cc(C)cc(Oc2ncnc(Oc3ccccc3C(=NOC)C(=O)N(C)SC(F)(Cl)Cl)c2F)c1 [Example 137] | 5.76 |
| CON=Cc1ccccc1Oc1ncnc(Oc2ccccc2C(=NOC)C(=O)N(C)SC(F)(Cl)Cl)c1F [Example 140] | 5.03 |
| CON=C(C(=O)N(C)SC(F)(Cl)Cl)c1ccccc1Oc1cc(Oc2cccc(Cl)c2C)ncn1 [Example 141] | 5.29 |
| CON=C(C(C)=NOCc1ccccc1C(=NOC)C(=O)N(C)SC(F)(Cl)Cl)c1ccccc1 [Example 143] | 5.48 |
| CON=C(C(=O)N(C)SC(F)(Cl)Cl)c1ccccc1OC [Example 146] | 3.69 |

The next lines start with the values.

| logP | SMILES |
| --- | --- |
| 5.46 | CON=C(C(=O)N(C)SC(F)(Cl)Cl)c1ccccc1Oc1ncnc(Oc2cccc(Cl)c2Cl)c1F [Example 91] |
| 5.34 | CON=C(C(=O)N(C)SC(F)(Cl)Cl)c1ccccc1Oc1ncnc(Oc2cccc(C)c2C)c1F [Example 92] |
| 4.7 | CON=C(C(=O)N(C)SC(F)(Cl)Cl)c1ccccc1Oc1ncnc(Oc2ccccc2OC(F)F)c1F [Example 94] |
| 5.36 | CCSCc1ccccc1Oc1ncnc(Oc2ccccc2C(=NOC)C(=O)N(C)SC(F)(Cl)Cl)c1F [Example 95] |
| 5.27 | CON=C(C(=O)N(C)SC(F)(Cl)Cl)c1ccccc1Oc1ncnc(Oc2cccc3c2OC(C)(C)C3)c1F [Example 96] |
| 5.4 | CON=C(C(=O)N(C)SC(F)(Cl)Cl)c1ccccc1Oc1ncnc(Oc2c(C)cccc2C)c1F [Example 97] |
| 4.84 | CN(SC(F)(Cl)Cl)C(=O)C(=NOCF)c1ccccc1Oc1ncnc(Oc2ccccc2Cl)c1F [Example 98] |
| 5.39 | CON=C(C(=O)N(C)SC(F)(Cl)Cl)c1ccccc1Oc1ncnc(Oc2cccc(Br)c2)c1F [Example 101] |
| 5.71 | CON=C(C(=O)N(C)SC(F)(Cl)Cl)c1ccccc1Oc1ncnc(Oc2cc(Cl)cc(Cl)c2)c1F [Example 103] |
| 4.73 | CON=C(C(=O)N(C)SC(F)(Cl)Cl)c1ccccc1Oc1ncnc(Oc2ccccc2F)c1F [Example 105] |
| 5.11 | CON=C(C(=O)N(C)SC(F)(Cl)Cl)c1ccccc1Oc1ncnc(Oc2cccc(C(F)(F)F)c2)c1F [Example 106] |
| 4.34 | CON=C(C(=O)N(C)SC(F)(Cl)Cl)c1ccccc1Oc1ncnc(Oc2ccc(C#N)cc2)c1F [Example 107] |
| 5.25 | CCc1ccccc1Oc1ncnc(Oc2ccccc2C(=NOC)C(=O)N(C)SC(F)(Cl)Cl)c1F [Example 109] |
| 4.86 | CCOc1ccccc1Oc1ncnc(Oc2ccccc2C(=NOC)C(=O)N(C)SC(F)(Cl)Cl)c1F [Example 110] |
| 5.16 | CON=C(C(=O)N(C)SC(F)(Cl)Cl)c1ccccc1Oc1ncnc(Oc2ccc(C(F)(F)F)cc2OC)c1F [Example 112] |
| 4.71 | CON=C(C(=O)N(C)SC(F)(Cl)Cl)c1ccccc1Oc1ncnc(Oc2cccc(C)c2[N+](=O)[O-])c1F [Example 113] |
| 4.76 | CON=C(C(=O)N(C)SC(F)(Cl)Cl)c1ccccc1Oc1ncnc(Oc2cccc(F)c2)c1F [Example 118] |
| 4.28 | CON=C(C(=O)N(C)SC(F)(Cl)Cl)c1ccccc1Oc1ncnc(Oc2ccccc2C#N)c1F [Example 119] |
| 5.3 | C=CCc1ccccc1Oc1ncnc(Oc2ccccc2C(=NOC)C(=O)N(C)SC(F)(Cl)Cl)c1F [Example 122] |
| 5.56 | CON=C(C(=O)N(C)SC(F)(Cl)Cl)c1ccccc1Oc1ncnc(Oc2ccccc2C(C)C)c1F [Example 123] |
| 5.88 | CON=C(C(=O)N(C)SC(F)(Cl)Cl)c1ccccc1Oc1ncnc(Oc2cc(C)ccc2C(C)C)c1F [Example 124] |
| 5.46 | CON=C(C(=O)N(C)SC(F)(Cl)Cl)c1ccccc1Oc1ncnc(Oc2cc(Cl)ccc2C)c1F [Example 125] |
| 5.42 | CON=C(C(=O)N(C)SC(F)(Cl)Cl)c1ccccc1Oc1ncnc(Oc2cccc(C(F)(F)F)c2Cl)c1F [Example 126] |
| 5.35 | CON=C(C(=O)N(C)SC(F)(Cl)Cl)c1ccccc1Oc1ncnc(Oc2ccc(I)cc2)c1F [Example 127] |
| 4.68 | CON=C(C(=O)N(C)SC(F)(Cl)Cl)c1ccccc1Oc1ncnc(Oc2cccc(OC)c2)c1F [Example 130] |
| 5.86 | CCC(C)c1ccccc1Oc1ncnc(Oc2ccccc2C(=NOC)C(=O)N(C)SC(F)(Cl)Cl)c1F (centres unmarked) [Example 134] |
| 5.65 | CON=C(C(=O)N(C)SC(F)(Cl)Cl)c1ccccc1Oc1ncnc(Oc2ccc(OC(F)(F)F)cc2C)c1F [Example 138] |
| 5.6 | CON=C(C(=O)N(C)SC(F)(Cl)Cl)c1ccccc1Oc1ncnc(Oc2ccc(SC(F)(F)F)cc2)c1F [Example 139] |
| 4.41 | CON=C(C(=O)N(C)SC(F)(Cl)Cl)c1ccccc1OC(=O)c1c(F)cccc1F [Example 144] |
| 5.45 | CON=C(C(=O)N(C)SC(F)(Cl)Cl)c1ccccc1Oc1ncnc(OC)c1F [Example 145] |
